Source: PubChem BioAssay AID1963837 (Molecular Pharmacology Branch, DTP, NCI, 2024)
“And” between values parts separate entries of the source, which are not always exact repeats. Equal values may be shown once.

Tested on: 843126-344-R-J1-PDC complex spheroid viability
Experiment: Anticancer human tumor 843126-344-R-J1-PDC patient-derived melanoma cell line growth inhibition [POLQ]
Conditions: for viability, T/C: stronger effect = lower value; active = viability on the fitted dose curve at most 10% of control; inactive = the rest
Procedure: Multicellular complex tumor spheroid response to Polymerase (POL) inhibitors (novobiocin, ART-558, RP6685) in combination with a variety of drugs and investigational agents in selected tumor cell lines
The POL inhibitors (novobiocin, ART-558, and RP6685) were evaluated both individually and in combination with standard of care and investigational anticancer small molecules within a complex spheroid model of solid tumors. . Complex spheroids include a stromal component modeled by human endothelial cells (HUVEC) and fibroblasts modeled by human mesenchymal stem cells (MSCs). The concentration ranges selected for each drug and investigational agent were based upon clinically achievable concentrations if the clinical Cmax of the agent was known.
Compounds. The drugs and investigational agents: novobiocin (NSC847541), ART-558 (NSC835418), RP-6685 (NSC848927), peposertib (NSC802822), ceralasertib (NSC780249), elimusertib (NSC800525), camonsertib (NSC841442), AZD-1390 (NSC803789), olaparib (NSC753686), talazoparib (NSC767125), rucaparib (NSC756644), sotorasib (NSC818433), MRTX-1133 (NSC836407), SN-38 (NSC673596), topotecan (NSC609699), epotoside (NSC141540), doxorubicin (NSC123127), gemcitabine (NSC613327), 5-fluorouracil (NSC19893), paclitaxel (NSC125973), vemurafenib (NSC761431), MSA-2 (NSC828583), SN-011 (NSC837082), adavosertib (NSC754352), prexasertib (NSC758257), carboplatin (NSC241240) and oxaliplatin (NSC266046), were obtained from the National Cancer Institute (NCI) Developmental Therapeutics Program Chemical Repository (21). The FDA-approved anticancer drug set is available from the Developmental Therapeutics Program at https://dtp.cancer.gov/organization/dscb/obtaining/. […] The stock solutions were prepared in dimethyl sulfoxide (DMSO, Sigma-Aldrich, St. Louis, MO, cat. D2650), except for the platinum compounds which were prepared in saline (Quality Biological, Gaithersburg, MD, cat. 114-055-101), at 800-fold the tested concentration and stored at -70 degrees C prior to their use. All drugs and investigational agents were tested over a range starting from a high concentration at or near the clinical Cmax and decreasing in half-log increments. If the clinical Cmax for an agent had not been determined, the highest concentration tested was 10 microM, except for SN-38, which was tested at a high concentration of 1 microM.
Cell Culture. All cells were maintained in an incubator at 37 degrees C and 5% CO2 with 95% humidity. The PDC lines were cultured according to standard operating procedures established by the NCI PDMR (https://pdmr.cancer.gov). Table 3 of the manuscript, lists the cell lines along with the number of the three cell types plated to form the mct-spheroids and media for tumor cell growth. After thawing, all PDC lines, except 997537-175-T-J1-PDC and 415267-285-R-J2-PDC, were cultured in Matrigel-coated flasks prepared with a working solution of 1X Ham's F-12 nutrient mix, without supplementation (Thermo Fisher Scientific, cat. 11765054), 100 U/mL penicillin-streptomycin (Thermo Fisher Scientific, cat. 15140122), and 2.5% Matrigel (Corning Inc., Corning, NY, cat. 354248) for the first three passages. The two PDC lines 997537-175-T-J1-PDC and 415267-285-R-J2-PDC were cultured on uncoated flasks. The 857933-349-R-J2-PDC line was cultured in 6C/Colon 1B media containing advanced DMEM/F-12 (Thermo Fisher Scientific, cat. 12634028), 10 mM HEPES (Thermo Fisher Scientific, cat. 15630080), 1X GlutaMAX supplement (Thermo Fisher Scientific, cat. 35050061), 0.1 mg/mL primocin (InvivoGen, San Diego, CA, cat. ant-pm-2), 10% defined fetal bovine serum, heat inactivated (HyClone Laboratories Inc., Logan, UT, cat. SH30070.03HI), 50% L-WRN conditioned media (ATCC, cat. CRL-3276), 1.25 mM N-Acetyl-L-cysteine (Sigma-Aldrich, cat. A9165), 10 mM nicotinamide (Sigma-Aldrich, cat. N0636), 1X B-27 supplement (Thermo Fisher Scientific, cat. 17504044), 1X N-2 supplement (Thermo Fisher Scientific, cat. […]
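For viability, T/C in this document: spheroids exposed to drugs for seven days before readout.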

CC(C)n1c(=O)n(C)c2cnc3cc(F)c(-c4ccc(OCCCN5CCCCC5)nc4)cc3c21
> 10 µM: IC50 (curve of compound)
inactive: viability, T/C (compound 0.0316 µM) 88.2% and 82.8% and 83.5% | viability, T/C (compound 0.1 µM) 74.9% and 88.6% and 77.2% | viability, T/C (compound 0.316 µM) 89% and 79.8% and 78.8% | viability, T/C (compound 1 µM) 86.1% and 87.7% and 92.9% | viability, T/C (compound 3.16 µM) 72.1% and 79.5% and 84.4% | viability, T/C (compound 10 µM) 72.5% and 79.1% and 55.2%

C=CC(=O)N1CCN(c2nc(=O)n(-c3c(C)ccnc3C(C)C)c3nc(-c4c(O)cccc4F)c(F)cc23)C(C)C1 (configuration not stated) + Nc1ccc(C#CCN(C(=O)Cc2ncc(C(F)(F)F)cc2C(F)(F)F)c2ccc(F)cc2)nn1
> 10 µM: IC50 (curve of first compound, second compound 0.0316 µM) | IC50 (curve of first compound, second compound 0.1 µM) | IC50 (curve of first compound, second compound 0.316 µM) | IC50 (curve of first compound, second compound 1 µM) | IC50 (curve of first compound, second compound 3.16 µM) | IC50 (curve of first compound, second compound 10 µM)
inactive: viability, T/C (second compound 0.0316 µM, first compound 0.0316 µM) 105% | viability, T/C (second compound 0.0316 µM, first compound 0.1 µM) 82.8% | viability, T/C (second compound 0.0316 µM, first compound 0.316 µM) 97.3% | viability, T/C (second compound 0.0316 µM, first compound 1 µM) 102% | viability, T/C (second compound 0.0316 µM, first compound 3.16 µM) 101% | viability, T/C (second compound 0.0316 µM, first compound 10 µM) 84.4% | viability, T/C (second compound 0.1 µM, first compound 0.0316 µM) 104% | viability, T/C (second compound 0.1 µM, first compound 0.1 µM) 86.1% | viability, T/C (second compound 0.1 µM, first compound 0.316 µM) 84.9% | viability, T/C (second compound 0.1 µM, first compound 1 µM) 97.8% | viability, T/C (second compound 0.1 µM, first compound 3.16 µM) 99.2% | viability, T/C (second compound 0.1 µM, first compound 10 µM) 85.6% | viability, T/C (second compound 0.316 µM, first compound 0.0316 µM) 89.3% | viability, T/C (second compound 0.316 µM, first compound 0.1 µM) 94.9% | viability, T/C (second compound 0.316 µM, first compound 0.316 µM) 104% | viability, T/C (second compound 0.316 µM, first compound 1 µM) 113% | viability, T/C (second compound 0.316 µM, first compound 3.16 µM) 94.5% | viability, T/C (second compound 0.316 µM, first compound 10 µM) 85.1% | viability, T/C (second compound 1 µM, first compound 0.0316 µM) 101% | viability, T/C (second compound 1 µM, first compound 0.1 µM) 104% | viability, T/C (second compound 1 µM, first compound 0.316 µM) 107% | viability, T/C (second compound 1 µM, first compound 1 µM) 94.7% | viability, T/C (second compound 1 µM, first compound 3.16 µM) 104% | viability, T/C (second compound 1 µM, first compound 10 µM) 85.4% | viability, T/C (second compound 3.16 µM, first compound 0.0316 µM) 87.5% | viability, T/C (second compound 3.16 µM, first compound 0.1 µM) 88.7% | viability, T/C (second compound 3.16 µM, first compound 0.316 µM) 106% | viability, T/C (second compound 3.16 µM, first compound 1 µM) 92.2% | viability, T/C (second compound 3.16 µM, first compound 3.16 µM) 85.8% | viability, T/C (second compound 3.16 µM, first compound 10 µM) 84.5% | viability, T/C (second compound 10 µM, first compound 0.0316 µM) 83.7% | viability, T/C (second compound 10 µM, first compound 0.1 µM) 91.1% | viability, T/C (second compound 10 µM, first compound 0.316 µM) 84.1% | viability, T/C (second compound 10 µM, first compound 1 µM) 98.5% | viability, T/C (second compound 10 µM, first compound 3.16 µM) 95.7% | viability, T/C (second compound 10 µM, first compound 10 µM) 81.2%

COc1cc(C2c3cc4c(cc3C(OC3OC5COC(C)OC5C(O)C3O)C3COC(=O)C23)OCO4)cc(OC)c1O (configuration not stated)
inactive: viability, T/C (compound 0.0316 µM) 82.2% and 114% and 91.2% | viability, T/C (compound 0.1 µM) 95.3% and 90.7% and 102% | viability, T/C (compound 0.316 µM) 90% and 97.6% and 83.3% | viability, T/C (compound 1 µM) 90.9% and 79% and 81.2% | viability, T/C (compound 3.16 µM) 58.2% and 68.9% and 66.3% | viability, T/C (compound 10 µM) 50% and 52.2% and 41.9%
> 10 µM and 6.8 µM: IC50 (curve of compound)

CC1COCCN1c1cc(C2(S(C)(=N)=O)CC2)nc(-c2ccnc3[nH]ccc23)n1 (configuration not stated)
> 10 µM: IC50 (curve of compound)
inactive: viability, T/C (compound 0.0316 µM) 87.2% and 79.8% and 109% | viability, T/C (compound 0.1 µM) 93.7% and 82.8% and 102% | viability, T/C (compound 0.316 µM) 97.2% and 83.1% and 95% | viability, T/C (compound 1 µM) 81.4% and 97.7% and 89.5% | viability, T/C (compound 3.16 µM) 73.4% and 81.9% and 68% | viability, T/C (compound 10 µM) 49.9% and 55.9% and 55.2%

CCc1cc2c(N3CCc4c(cc(Cn5ccnc5)cc4-c4cn(C)nc4C(F)(F)F)C3=O)cc(C)nc2c(OC)n1
inactive: viability, T/C (compound 0.0316 µM) 103% and 106% and 77.7% | viability, T/C (compound 0.1 µM) 81.1% and 72.2% and 85.4% | viability, T/C (compound 0.316 µM) 76.4% and 87.8% and 98.1% | viability, T/C (compound 1 µM) 64.2% and 76.7% and 85.2% | viability, T/C (compound 3.16 µM) 71.5% and 72.6% and 64.6% | viability, T/C (compound 10 µM) 54.2% and 60.3%
> 10 µM: IC50 (curve of compound)

C=CCn1c(=O)c2cnc(Nc3ccc(N4CCN(C)CC4)cc3)nc2n1-c1cccc(C(C)(C)O)n1
> 1 µM: IC50 (curve of compound)
inactive: viability, T/C (compound 0.00316 µM) 101% and 96.6% and 95.3% | viability, T/C (compound 0.01 µM) 89.5% and 86.3% and 96.3% | viability, T/C (compound 0.0316 µM) 95.7% (2×) and 111% | viability, T/C (compound 0.1 µM) 109% and 97.8% and 99.3% | viability, T/C (compound 0.316 µM) 91.6% and 93.7% and 98.2% | viability, T/C (compound 1 µM) 81.1% and 78.6% and 82.7%
